This note sets out measurements from patent US12590106B2, “Spiromacrocyclic orexin 2 receptor agonists” (H. Lundbeck A/S, priority 2023, dated 2026).

What is called EC50 is the concentration needed to bring the measured effect to its halfway point. As usually defined, the Emax is the maximal effect, on the per cent scale that the assay sets. Broadly, the Papp A→B is how fast a substance crosses the layer from the apical side. Higher therefore signals fast passage.

One data set concerns the target T1, human Ox2R (Homo sapiens, UniProt O43614).
T1 construct: The gene encoding hOx2R was subcloned into the expression plasmid pcDNA5/FRT/TO; expressed in transfected cells; host or cells: CHO Flp-In cells (pcDNA5/FRT/TO with pOG44 Flp recombinase vector, hygromycin B selection)
T1 sequence (O43614 1-444): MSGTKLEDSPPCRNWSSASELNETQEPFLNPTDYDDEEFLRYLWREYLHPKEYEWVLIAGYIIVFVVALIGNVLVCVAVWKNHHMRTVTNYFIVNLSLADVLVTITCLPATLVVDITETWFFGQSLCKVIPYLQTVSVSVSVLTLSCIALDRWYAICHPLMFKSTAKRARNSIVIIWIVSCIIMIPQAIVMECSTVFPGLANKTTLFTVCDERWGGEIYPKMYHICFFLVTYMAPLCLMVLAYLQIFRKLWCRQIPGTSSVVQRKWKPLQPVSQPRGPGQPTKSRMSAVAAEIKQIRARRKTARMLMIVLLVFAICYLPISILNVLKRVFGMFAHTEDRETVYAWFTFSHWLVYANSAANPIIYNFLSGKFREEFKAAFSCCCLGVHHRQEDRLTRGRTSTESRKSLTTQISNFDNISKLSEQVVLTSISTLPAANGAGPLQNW
The experiment in a line: Measurement of OX2R agonist activity (cell-based calcium release assay). To be noted: hOx2R-CHO Flp-In cells, n≥2 tests; for EC50: intracellular calcium, read-out: EC50; for Emax: normalized to assay buffer (0%) and 10 μM Danavorexton (100%), read-out: Emax (%). An outline of the steps:
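CHO Flp-In cells stably expressing human Ox2R, dye-loaded 1 h at 37 °C in HBSS/20 mM HEPES pH 7.4 with 2.5 mM probenecid and 10 mM CaCl2, then stimulated with compound.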
A general note: Calcium flux is commonly read through the fluorescence of an indicator in the cells.

A further data set has as its target T2, P-gp (MDR1) (Homo sapiens, UniProt P08183).
T2 construct: host or cells: MDCKII (canine kidney) cells transfected with human MDR1
The experiment in a line: MDR1-MDCKII assay (bidirectional transport). The format is in vitro ADME. To be noted: MDCK-MDR1, pH 7.4, test compound 0.5 μM, MDR1-MDCKII monolayer; for efflux ratio at 0.5 μM: read-out: ER (efflux ratio); for Papp A→B at 0.5 μM: apical to basolateral. The procedure:
Bidirectional transport in MDCKII cells transfected with human MDR1 were assessed according to previously published methodology (Langthaler, K. et al. (2024). Fluids Barriers CNS, 21 (11): 1-15). In brief, cells obtained from the Netherlands Cancer Institute were maintained at 37° C. in α-MEM containing 10% FBS, 100 μg/mL penicillin-G, 100 μg/mL streptomycin, 1% non-essential amino acid under culture conditions of 5% CO2 and 95% relative humidity. Transport of test compound (0.5 μM, 0.4% DMSO final concentrations) across the cell monolayer was determined in triplicate on a single test occasion along with controls for low and high permeability (fenoterol and metoprolol, 2 μM) and P-gp efflux (digoxin, 10 μM). Each compound was loaded onto either the apical side (75 μL) or basolateral side (275 μL) with transport buffer (1% BSA in HBSS with 10 mM HEPES (pH 7.4)) on the opposing side of the cells (e.g. 50 μL or 250 μL on the apical or basolateral side). A sample (25 μL) from the donor compartment was taken 30 s after test compound is loaded onto the plate, resulting in a final incubation volume of 50 μL and 250 μL on apical and basolateral sides respectively. At the end of the incubation period, samples (75 μL) were taken from both sides. The donor samples (25 μL) were firstly diluted with transport buffer (50 μL) and then all samples were quenched in acetonitrile (125 μL) containing internal analytical standards. After centrifugation (20 min, 3220 g, 4° C.) the supernatants were analysed by LC-MS/MS. The apparent permeability coefficient (Papp) and efflux ratio (ER) were calculated using the equations below; where dCr/dt is the compound concentration in the receiver chamber as a function of time (μM/s); Vr is the solution volume in the receiver chamber; A is the surface area of the cell monolayer; C0 is the initial concentration in the donor compartment; and Papp A-B and Papp B-A refer to the apparent permeabilities in the respective directions. Compound permeability is classified as low, moderate, or high according to Papp value binning classifications: <1, 1 to 6 or >6×10^−6 cm/s, respectively. The ER is employed to classify compounds as unlikely, possible, or likely P-gp substrates when ER was: <1.5, 1.5 to <2 or >2, respectively.

T2 sequence (P08183 whole entry): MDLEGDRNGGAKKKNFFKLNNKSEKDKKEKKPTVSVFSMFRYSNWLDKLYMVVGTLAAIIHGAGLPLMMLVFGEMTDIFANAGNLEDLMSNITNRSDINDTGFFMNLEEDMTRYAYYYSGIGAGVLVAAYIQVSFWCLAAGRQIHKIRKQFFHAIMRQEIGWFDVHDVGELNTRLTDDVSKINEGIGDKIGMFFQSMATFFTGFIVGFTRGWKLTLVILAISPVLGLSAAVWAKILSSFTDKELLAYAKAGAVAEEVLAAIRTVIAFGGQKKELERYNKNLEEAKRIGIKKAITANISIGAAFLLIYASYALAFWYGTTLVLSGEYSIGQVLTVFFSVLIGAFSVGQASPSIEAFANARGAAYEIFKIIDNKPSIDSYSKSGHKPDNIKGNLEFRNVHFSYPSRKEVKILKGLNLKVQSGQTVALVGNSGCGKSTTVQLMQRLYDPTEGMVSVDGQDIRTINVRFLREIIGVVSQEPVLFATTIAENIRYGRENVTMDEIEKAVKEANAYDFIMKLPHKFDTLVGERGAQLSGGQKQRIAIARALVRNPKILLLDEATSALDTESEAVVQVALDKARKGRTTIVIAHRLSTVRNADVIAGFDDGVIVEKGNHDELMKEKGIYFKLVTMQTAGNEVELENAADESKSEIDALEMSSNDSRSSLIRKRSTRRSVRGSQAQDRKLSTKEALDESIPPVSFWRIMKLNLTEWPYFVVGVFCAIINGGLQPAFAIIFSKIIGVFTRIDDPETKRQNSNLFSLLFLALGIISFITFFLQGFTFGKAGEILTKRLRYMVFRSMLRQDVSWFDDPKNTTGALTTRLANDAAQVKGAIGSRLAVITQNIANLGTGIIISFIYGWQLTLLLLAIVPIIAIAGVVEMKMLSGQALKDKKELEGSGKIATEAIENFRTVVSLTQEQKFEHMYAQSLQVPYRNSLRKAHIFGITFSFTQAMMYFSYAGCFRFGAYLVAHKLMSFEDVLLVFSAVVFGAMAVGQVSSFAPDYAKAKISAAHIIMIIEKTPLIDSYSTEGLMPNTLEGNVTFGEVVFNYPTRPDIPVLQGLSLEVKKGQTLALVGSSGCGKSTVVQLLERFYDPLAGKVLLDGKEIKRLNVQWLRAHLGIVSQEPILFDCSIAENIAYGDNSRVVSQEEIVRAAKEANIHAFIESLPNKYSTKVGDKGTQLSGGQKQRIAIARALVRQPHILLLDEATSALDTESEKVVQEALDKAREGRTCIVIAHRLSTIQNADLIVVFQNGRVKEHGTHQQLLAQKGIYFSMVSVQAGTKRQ

Regarding `CS(=O)(=O)N[C@@H]1C[C@]2(Cc3ccc(F)c(c3)-c3cccc(F)c3OCc3coc2n3)[C@H]2C[C@@H]12` [Example 117, N-[(1′R,2′R,5′S,14R)-6,19-difluorospiro[8,12-dioxa-21-azatetracyclo[14.3.1.110,13.02,7]henicosa-1(20),2,4,6,10,13(21),16,18-octaene-14,4′-bicyclo[3.1.0]hexane]-2′-yl]methanesulfonamide], on human Ox2R, the EC50 was 0.048 nM and the Emax worked out at 100%. Further, on P-gp (MDR1), the efflux ratio at 0.5 μM was found to be 1.9 and the apparent permeability from apical to basolateral (Papp A→B) at 0.5 μM came to 9.31 ×10⁻⁶ cm/s.

As for `CCS(=O)(=O)N[C@H]1CC[C@@]2(Cc3ccc(F)c(c3)-c3cccc(F)c3OCc3coc2n3)C1` [Example 21, N-[(1′S,14R)-6,19-difluorospiro[8,12-dioxa-21-azatetracyclo[14.3.1.110,13.02,7]henicosa-1(19),2,4,6,10,13(21),16(20),17-octaene-14,3′-cyclopentane]-1′-yl]ethanesulfonamide], on human Ox2R, the half-maximal effective concentration (EC50) was found to be 0.083 nM and the maximal response (Emax) came to 100%. On P-gp (MDR1), the efflux ratio at 0.5 μM was found to be 1.4 and the apparent permeability from apical to basolateral (Papp A→B) at 0.5 μM worked out at 9.89 ×10⁻⁶ cm/s.

With `CS(=O)(=O)N[C@H]1CC[C@@]2(Cc3ccc(F)c(c3)-c3cccc(F)c3OCc3coc2n3)C1` [Example 8, N-[(1′S,14R)-6,19-difluorospiro[8,12-dioxa-21-azatetracyclo[14.3.1.110,13.02,7]henicosa-1(19),2,4,6,10,13(21),16(20),17-octaene-14,3′-cyclopentane]-1′-yl]methanesulfonamide], on human Ox2R, the EC50 is 0.064 nM and the maximal response (Emax) was determined as 99%. For the same molecule, at P-gp (MDR1), the efflux ratio at 0.5 μM was 1.3 and the apparent permeability from apical to basolateral (Papp A→B) at 0.5 μM came out at 11.5 ×10⁻⁶ cm/s.

`CS(=O)(=O)N[C@H]1CC[C@@]2(Cc3ccc(Cl)c(c3)-c3cccc(F)c3OCc3coc2n3)C1` [Example 16, N-[(1′S,14R)-19-chloro-6-fluoro-spiro[8,12-dioxa-21-azatetracyclo[14.3.1.110,13.02,7]henicosa-1(19),2,4,6,10,13(21),16(20),17-octaene-14,3′-cyclopentane]-1′-yl]methanesulfonamide]: at human Ox2R, the EC50 was determined as 0.051 nM and the Emax amounted to 99%. Besides, on P-gp (MDR1), the efflux ratio at 0.5 μM worked out at 1 and the Papp A→B at 0.5 μM is 9.31 ×10⁻⁶ cm/s.

For `O=S(=O)(N[C@H]1CC[C@@]2(Cc3ccc(F)c(c3)-c3cccc(F)c3OCc3coc2n3)C1)C1(F)CC1` [Example 116, N-[(1′S,14R)-6,19-difluorospiro[8,12-dioxa-21-azatetracyclo[14.3.1.110,13.02,7]henicosa-1(20),2,4,6,10,13(21),16,18-octaene-14,3′-cyclopentane]-1′-yl]-1-fluoro-cyclopropanesulfonamide], on human Ox2R, the EC50 was 0.068 nM and the Emax is 98%. Further, at P-gp (MDR1), the efflux ratio at 0.5 μM came to 1.5 and the Papp A→B at 0.5 μM is 3.87 ×10⁻⁶ cm/s.

As for `CS(=O)(=O)N[C@H]1CC[C@@]2(CO[C@H]3CC[C@H](CC3)c3cccc(n3)OCc3coc2n3)C1` [Example 42, N-[(1s,1′S,13S,16s)-spiro[7,11,15-trioxa-21,22-diazatetracyclo[14.2.2.12,6.19,12]docosa-2,4,6(22),9,12(21)-pentaene-13,3′-cyclopentane]-1′-yl]methanesulfonamide], on human Ox2R, the EC50 is 0.062 nM and the maximal response (Emax) is 98%. Moreover, at P-gp (MDR1), the efflux ratio at 0.5 μM came to 1 and the Papp A→B at 0.5 μM turned out to be 13 ×10⁻⁶ cm/s.

For the molecule `O=S(=O)(CF)N[C@H]1CC[C@@]2(Cc3ccc(F)c(c3)-c3cccc(F)c3OCc3coc2n3)C1` [Example 113, N-[(1′S,14R)-6,19-difluorospiro[8,12-dioxa-21-azatetracyclo[14.3.1.110,13.02,7]henicosa-1(20),2,4,6,10,13(21),16,18-octaene-14,3′-cyclopentane]-1′-yl]-1-fluoro-methanesulfonamide], at human Ox2R, the EC50 amounted to 0.054 nM and the Emax stood at 95%. For the same molecule, on P-gp (MDR1), the efflux ratio at 0.5 μM was 1.3 and the Papp A→B at 0.5 μM turned out to be 6.47 ×10⁻⁶ cm/s.

For `CS(=O)(=O)N[C@H]1CC[C@@]2(Cc3cc(c(F)cc3F)-c3cc(F)cc(F)c3OCc3coc2n3)C1` [Example 30, N-[(1′S,14R)-4,6,17,19-tetrafluorospiro[8,12-dioxa-21-azatetracyclo[14.3.1.110,13.02,7]henicosa-1(19),2,4,6,10,13(21),16(20),17-octaene-14,3′-cyclopentane]-1′-yl]methanesulfonamide], on human Ox2R, the EC50 was 0.077 nM and the maximum response (Emax) stood at 97%. Besides, at P-gp (MDR1), the efflux ratio at 0.5 μM is 1.8 and the Papp A→B at 0.5 μM turned out to be 9.04 ×10⁻⁶ cm/s.

Take `CS(=O)(=O)N[C@H]1CC[C@@]2(Cc3cc(c(F)cc3F)-c3cccc(F)c3OCc3csc2n3)C1` [Example 36, N-[(1′S,14R)-6,17,19-trifluorospiro[8-oxa-12-thia-21-azatetracyclo[14.3.1.110,13.02,7]henicosa-1(19),2,4,6,10,13(21),16(20),17-octaene-14,3′-cyclopentane]-1′-yl]methanesulfonamide]: at human Ox2R, the EC50 turned out to be 0.058 nM and the Emax was 100%. For the same molecule, at P-gp (MDR1), the efflux ratio at 0.5 μM worked out at 1.1 and the Papp A→B at 0.5 μM turned out to be 8.23 ×10⁻⁶ cm/s.

For `CS(=O)(=O)N[C@H]1CC[C@@]2(Cc3cc(c(F)cc3F)-c3cccc(F)c3OCc3coc2n3)C1` [Example 39, N-[(1′S,14R)-6,17,19-trifluorospiro[8,12-dioxa-21-azatetracyclo[14.3.1.110,13.02,7]henicosa-1(19),2,4,6,10,13(21),16(20),17-octaene-14,3′-cyclopentane]-1′-yl]methanesulfonamide], at human Ox2R, the half-maximal effective concentration (EC50) is 0.035 nM and the maximal response (Emax) is 97%. Further, at P-gp (MDR1), the efflux ratio at 0.5 μM amounted to 1.1 and the apparent permeability from apical to basolateral (Papp A→B) at 0.5 μM was 10.2 ×10⁻⁶ cm/s.

Regarding `Cc1oc2nc1COc1c(F)cccc1-c1cc(ccc1F)C[C@@]21CC[C@H](NS(C)(=O)=O)C1` [Example 25, N-[(1′S,14R)-6,19-difluoro-11-methyl-spiro[8,12-dioxa-21-azatetracyclo[14.3.1.110,13.02,7]henicosa-1(19),2,4,6,10,13(21),16(20),17-octaene-14,3′-cyclopentane]-1′-yl]methanesulfonamide], on human Ox2R, the EC50 came out at 0.066 nM and the Emax was 97%. Besides, on P-gp (MDR1), the efflux ratio at 0.5 μM was found to be 2 and the Papp A→B at 0.5 μM is 8.2 ×10⁻⁶ cm/s.

As to `O=S(=O)(N[C@H]1CC[C@@]2(Cc3cc(c(F)cc3F)-c3cccc(F)c3OCc3coc2n3)C1)C1CC1` [Example 104, N-[(1′S,14R)-6,17,19-trifluorospiro[8,12-dioxa-21-azatetracyclo[14.3.1.110,13.02,7]henicosa-1(19),2,4,6,10,13(21),16(20),17-octaene-14,3′-cyclopentane]-1′-yl]cyclopropanesulfonamide], at human Ox2R, the EC50 turned out to be 0.08 nM and the Emax came out at 100%. In addition, at P-gp (MDR1), the efflux ratio at 0.5 μM was 1.6 and the Papp A→B at 0.5 μM came out at 9.52 ×10⁻⁶ cm/s.

`CS(=O)(=O)NC1CC[C@@]2(CO[C@H]3CC[C@H](CC3)c3cccc(F)c3OCc3coc2n3)C1` (stereo partly drawn) [Example 100, N-[(1R,1′S,14S,17R)-6-fluorospiro[8,12,16-trioxa-22-azatetracyclo[15.2.2.110,13.02,7]docosa-2,4,6,10,13(22)-pentaene-14,3′-cyclopentane]-1′-yl]methanesulfonamide]: at human Ox2R, the EC50 came out at 0.037 nM and the Emax is 100%. Further, on P-gp (MDR1), the efflux ratio at 0.5 μM amounted to 1.8 and the Papp A→B at 0.5 μM came out at 10.2 ×10⁻⁶ cm/s.
